Columns and labels:
[1] = test system: GLUT4; experiment: GLUT4 translocation, subcellular fractionation and western blot; format: cell-based, rat; conditions: 500 μM, 4 h, vs untreated control adipocytes
Procedure: Adipocytes treated with DHH105 for 4 h or insulin for 30 min were washed three times with HES buffer [8 mM HEPES, 250 mM sucrose, 2 mM EDTA, 20 mM NaF, 50 mM NaVO4, 50 mM sodium pyrophosphate, protease inhibitor cocktail (Sigma), and phosphatase inhibitor cocktail (Sigma), pH 7.4]. Adipocytes were homogenized in 20 ml HES buffer with a potter Elvehjem teflon pestle (15 strokes). Homogenates were centrifuged at 1000 g for 10 min and the supernatant was centrifuged again at 16,000 g for 20 min. The resulting pellet was resuspended in 500 μl HES buffer, carefully laid on a discontinuous sucrose gradient (density top to bottom: 1.0592, 1.1270, 1.1533, 1.1764, 1.2575) and centrifuged at 110,000 g for 70 min. The plasma membrane fraction was obtained from the gradient density of 1.1533, diluted in 50 ml HES buffer, and centrifuged at 16,000 g for 20 min. The pellet (plasma membrane fraction) was resuspended in 500 μl HES buffer and stored at −70° C. To obtain the microsomal membrane fraction, the supernatant from the second centrifugation was centrifuged at 220,000 g for 70 min. The pellet was washed, resuspended in 500 μl HES buffer and stored at −70° C. The protein content of each fraction was measured by the Bradford method. […] The membranes were washed and the immunoreactive proteins were detected with an enhanced chemoluminescence western blot detection kit (Amersham Pharmacia Biotech).

[2] = test system: PI3-kinase; experiment: PI3-kinase assay in adipocyte lysate; format: cell-based, rat; conditions: adipocytes, 500 μM, 2 h
Procedure: Phosphatidylinositide (PI) in DMSO (1 mg/ml) was mixed with an equal volume of buffer A (10 mM HEPES, 100 mM NaCl, 1 mM EGTA, 0.03% NP-40, pH 7.0) and then 10 μl was mixed with an equal volume of buffer B (500 μM [γ-^32P] ATP (10 μCi; Amersham Pharmacia Biotech), 25 mM MgCl2, 15 mM 2-(N-morpholine)ethansulfonic acid, pH 6.8). This mixture was added to 30 μl of adipocyte lysate and incubated for 5 min at room temperature. The kinase reaction was stopped by adding 80 μl of 1 N HCl. A mixture of chloroform and ethanol (1:1, 160 μl) was added to the reaction mixture followed by centrifugation at full speed in a microcentrifuge for 2 min, and 40 μl of the organic phase was extracted. The organic phase was spotted on aluminum-backed silica gel 60 thin layer chromatography (TLC) plates that were pre-soaked in developing solvent (chloroform:methanol:2.2 M NH4OH, 9:7:2), run for 3 h in a TLC chamber with the developing solvent, and air-dried. The amount of phosphoinositides was detected by autoradiography.
In FIG. 7A, the intensity of the PIP3 band was normalized with that of PI, and the relative amount of PIP3 was calculated by (normalized band intensity of sample)/(normalized band intensity of control) (lower panel). Data are means±SEM of three independent experiments.

[3] = test system: diabetic ob/ob mice; experiment: Blood glucose and glucose tolerance test in diabetic ob/ob mice; format: in vivo, mouse
Source text: Male C57BL/6 and C57BL/6 ob/ob mice were purchased from The Jackson Laboratory (Bar Harbor, Me.), and Sprague-Dawley (SD) rats were purchased from Charles River Laboratories (Wilmington, Mass.). The animals were maintained and bred under specific pathogen-free conditions and provided with sterile food and water ad libitum at the Animal Resources Centre, Faculty of Medicine, University of Calgary. The use and care of the animals used in this study were approved by the Animal Care Committee, Faculty of Medicine, University of Calgary.
DHH105 was dissolved in DMSO and emulsified in olive oil (1:50 v/v). […] Blood glucose levels were measured with a glucometer (One Touch Ultra, Lifescan, Milpitas, Calif.) every morning between 9:00–10:00 a.m. just before injection of DHH105.
To determine whether treatment with DHH105 can decrease the blood glucose level in STZ-induced diabetic C57BL/6 mice (blood glucose levels>300 mg/dl), mice were treated with DHH105 (150 mg/kd) daily for 2 weeks. […] Blood glucose levels were measured at 0, 15, 30, 60, and 120 min after glucose injection.
The blood glucose lowering effect was further determined in ob/ob mice, a model of type 2 diabetes. […]

[4] = molecular target: T1, insulin receptor (Rattus norvegicus, UniProt P15127); experiment: Insulin binding assay ([125I]-insulin binding to adipocytes); conditions: [125I]-insulin 0.1 ng/ml, 2 h
T1 construct: endogenous in cells; host or cells: isolated primary adipocytes (rat)
Procedure: To examine whether DHH105 binds to the insulin receptor and activates the insulin signal transduction pathway, [^125I]-insulin binding to adipocytes was measured in the presence of DHH105. Isolated adipocytes were incubated in KRH buffer for 1 h to remove residual insulin. Adipocytes were then washed three times and resuspended in KRH buffer. Adipocytes (2×10^5 cells/vial) were incubated with DHH105 or insulin in the presence of [^125I]-insulin (0.1 ng/ml; Perkin-Elmer Life and Analytical Sciences, Downers Grove, Ill.) for 2 h at 16° C. in a shaking bath. To measure non-specific binding, 50 μg of unlabelled insulin (Sigma) were added to cells along with [^125I]-insulin. After incubation, adipocytes were harvested by silicon oil and the radioactivity was measured.

T1 sequence (P15127 27-759 limits assumed): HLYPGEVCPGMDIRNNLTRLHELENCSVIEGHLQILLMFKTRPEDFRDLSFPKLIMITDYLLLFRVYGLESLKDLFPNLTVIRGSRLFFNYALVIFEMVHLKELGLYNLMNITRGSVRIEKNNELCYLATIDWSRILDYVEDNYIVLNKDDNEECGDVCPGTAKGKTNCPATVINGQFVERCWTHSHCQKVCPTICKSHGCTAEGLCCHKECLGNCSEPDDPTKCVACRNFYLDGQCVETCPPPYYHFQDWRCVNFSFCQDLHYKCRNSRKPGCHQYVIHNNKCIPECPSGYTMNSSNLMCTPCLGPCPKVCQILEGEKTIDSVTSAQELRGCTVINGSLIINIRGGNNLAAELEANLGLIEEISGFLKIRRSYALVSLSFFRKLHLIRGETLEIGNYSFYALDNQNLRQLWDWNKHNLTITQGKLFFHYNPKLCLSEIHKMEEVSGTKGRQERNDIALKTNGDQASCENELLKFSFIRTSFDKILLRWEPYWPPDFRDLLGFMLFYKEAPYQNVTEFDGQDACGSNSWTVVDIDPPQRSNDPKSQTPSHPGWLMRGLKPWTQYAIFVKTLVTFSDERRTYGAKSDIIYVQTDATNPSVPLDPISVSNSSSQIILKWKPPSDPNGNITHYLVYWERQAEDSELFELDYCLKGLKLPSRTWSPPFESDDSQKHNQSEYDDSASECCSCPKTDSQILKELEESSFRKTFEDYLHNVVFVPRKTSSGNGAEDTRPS
T1 sequence (P15127 764-1383 partner limits assumed): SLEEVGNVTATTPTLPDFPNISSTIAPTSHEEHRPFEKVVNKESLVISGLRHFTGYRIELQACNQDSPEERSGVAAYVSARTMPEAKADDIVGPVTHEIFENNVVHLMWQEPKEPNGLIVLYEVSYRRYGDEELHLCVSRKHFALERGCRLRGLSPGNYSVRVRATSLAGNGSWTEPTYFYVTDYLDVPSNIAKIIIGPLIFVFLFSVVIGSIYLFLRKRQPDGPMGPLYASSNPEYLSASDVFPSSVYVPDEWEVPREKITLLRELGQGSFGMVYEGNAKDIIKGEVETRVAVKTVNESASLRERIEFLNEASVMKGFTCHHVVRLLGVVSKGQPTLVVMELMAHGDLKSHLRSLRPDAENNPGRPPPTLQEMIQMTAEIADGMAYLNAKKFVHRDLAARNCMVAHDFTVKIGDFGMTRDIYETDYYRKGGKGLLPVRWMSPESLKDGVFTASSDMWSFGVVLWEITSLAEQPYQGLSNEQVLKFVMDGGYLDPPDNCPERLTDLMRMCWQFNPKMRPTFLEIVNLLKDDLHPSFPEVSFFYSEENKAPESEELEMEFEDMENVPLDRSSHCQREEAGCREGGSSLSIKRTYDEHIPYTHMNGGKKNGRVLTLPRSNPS

O=C(CCc1ccc(O)c(O)c1)OCc1cccc2ccccc12 [DHH105, 3,4-dihydroxyhydrocinnamic acid naphthalene methyl ester]
amount of GLUT4 in the microsomal membrane fraction [1]: decreased | immunoreactive GLUT4 in the plasma membrane fraction [1]: increased | PI3-kinase activity (conversion of PI to PIP3) [2]: significantly increased | time after first injection at which blood glucose levels began to decrease ([3]; 150 mg/kg i.p. daily): 4 days | blood glucose levels vs vehicle-treated control mice ([3]; 150 mg/kg i.p. daily for 2 weeks): significantly lower | binding of [125I]-insulin to adipocytes, DHH105 together with insulin ([4]; 500 μM DHH105 plus insulin): further inhibited | binding of [125I]-insulin to adipocytes ([4]; 16° C.): inhibited
